Experimental data reported in patent US9181234B2, “Antibacterial compounds” (priority 2010, dated 2015).
Converted amounts (≈) assume the structure as drawn.

What was measured:
physchem = settings: for solubility at 24 h: kinetic from dmso stock
Outline: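 DMSO doubling dilutions were diluted twenty-fold into 100 mM citrate (pH 4), PBS (pH 7.4) or carbonate-bicarbonate (pH 9). After 24 h equilibration at room temperature, absorbance was read at 620 nm. The reported value is the highest concentration without measurable precipitate.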

[1] = test system: Staphylococcus aureus (Isolate ID ATCC 29213); assay: Antibacterial activity, MIC, S. aureus; format: cell-based; settings: broth microdilution or agar dilution; for MIC: Staphylococcus aureus, ATCC29213, Gram positive strain; for Antibacterial Activity (MIC) S. aureus (ATCC 29213): Gram positive strain
Outline: (§1)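 MICs were determined by broth microdilution or agar dilution following CLSI guidelines (M7-A7), testing susceptibility in liquid or on solid media.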

[2] = test system: Enterococcus faecalis (Isolate ID ATCC 29212); assay: Antibacterial activity, MIC, E. faecalis; format: cell-based; settings: Gram positive strain, broth microdilution or agar dilution; for MIC: Enterococcus faecalis, ATCC29212
Outline: as §1

[3] = test system: Streptococcus pyogenes (Isolate ID ATCC 51339); assay: Antibacterial activity, MIC, S. pyogenes; format: cell-based; settings: broth microdilution or agar dilution; for MIC: Streptococcus pyogenes, ATCC51339, Gram positive strain; for Antibacterial Activity (MIC) S. pyogenes (ATCC 51339): Gram positive strain
Outline: as §1

[4] = test system: Haemophilus influenzae (Isolate ID ATCC 49247); assay: Antibacterial activity, MIC, H. influenzae; format: cell-based; settings: Gram negative strain, broth microdilution or agar dilution; for MIC: Haemophilus influenzae, ATCC49247
Outline: as §1

[5] = pH 7.4, aqueous buffer, Max Solubility
[6] = pH 7.4, aqueous buffer, Solubility (pH 7.4)
[7] = pH 7.4, aqueous buffer, Solubility Range
[8] = pH 7.4, aqueous buffer, Solubility Range (maximum solubility)
[9] = pH 9, aqueous buffer, Max Solubility
[10] = pH 9, aqueous buffer, Solubility Range (maximum solubility)

## CCNC(=O)Nc1nc2cc(-c3cnc(N4CCC(CC)(C(=O)O)CC4)nc3)cc(-c3ccc(C#N)cn3)c2s1 [Compound 105]
physchem; [5]
  solubility at 24 h: ≥ 800 µg/mL
physchem; [6]
  solubility at 24 h: ≥ 800 µg/mL
physchem; [7]
  solubility at 24 h: > 800 µg/mL
physchem; [8]
  solubility at 24 h: > 800 µg/mL
[1]
  MIC: ≤ 0.25 µg/mL
[2]
  MIC: ≤ 0.25 µg/mL
[3]
  MIC: ≤ 0.25 µg/mL
[4]
  MIC: 1 to 16 µg/mL (≈ 1.8 to 28.7 µM)

## CCNC(=O)Nc1nc2cc(-c3cnc(N4CCC(CC)(C(=O)O)CC4)nc3)cc(-c3ncnc4[nH]ccc34)c2s1 [Compound 106]
physchem; [5]
  solubility at 24 h: ≥ 800 µg/mL
physchem; [6]
  solubility at 24 h: ≥ 800 µg/mL
physchem; [7]
  solubility at 24 h: > 800 µg/mL
physchem; [8]
  solubility at 24 h: > 800 µg/mL
[1]
  MIC: 0.25 to 1 µg/mL (≈ 0.437 to 1.75 µM)
[2]
  MIC: ≤ 0.25 µg/mL
[3]
  MIC: ≤ 0.25 µg/mL
[4]
  MIC: 1 to 16 µg/mL (≈ 1.75 to 28 µM)

## CCNC(=O)Nc1nc2cc(-c3cnc(N4CCC(CC)(C(=O)OCC)CC4)nc3)cc(Br)c2s1 [Compound 107]
physchem; pH 7.4
  Max Solubility: ≧800 μg/mL
  Solubility (pH 7.4): ≧800 μg/mL
[1]
  Antibacterial Activity (MIC) S. aureus (ATCC 29213): A (“A” activity ≦0.25 μg/mL)
[2]
  Antibacterial Activity (MIC) E. faecalis (ATCC 29212): A (“A” activity ≦0.25 μg/mL)
[3]
  Antibacterial Activity (MIC) S. pyogenes (ATCC 51339): B (“B” activity >0.25 μg/mL-1.0 μg/mL)
[4]
  Antibacterial Activity (MIC) H. influenzae (ATCC 49247): D (“D” activity >16 μg/mL)

## CCNC(=O)Nc1nc2cc(-c3cnc(N4CCC(CC)(C(=O)O)CC4)cn3)cc(-c3ccccn3)c2s1 [Compound 108]
physchem; [5]
  solubility at 24 h: ≥ 800 µg/mL
physchem; [6]
  solubility at 24 h: ≥ 800 µg/mL
physchem; [7]
  solubility at 24 h: > 800 µg/mL
physchem; [8]
  solubility at 24 h: > 800 µg/mL
[1]
  MIC: ≤ 0.25 µg/mL
[2]
  MIC: ≤ 0.25 µg/mL
[3]
  MIC: ≤ 0.25 µg/mL
[4]
  MIC: 1 to 16 µg/mL (≈ 1.88 to 30.1 µM)

## CCNC(=O)Nc1nc2cc(-c3cnc(N4CCC(CC)(C(=O)O)CC4)nc3)cc(-c3nccc(OC)n3)c2s1 [Compound 109]
physchem; [5]
  solubility at 24 h: ≥ 800 µg/mL
physchem; [6]
  solubility at 24 h: ≥ 800 µg/mL
physchem; [7]
  solubility at 24 h: > 800 µg/mL
physchem; [8]
  solubility at 24 h: > 800 µg/mL
[1]
  MIC: ≤ 0.25 µg/mL
[2]
  MIC: ≤ 0.25 µg/mL
[3]
  MIC: ≤ 0.25 µg/mL
[4]
  MIC: > 16 µg/mL

## CCNC(=O)Nc1nc2cc(-c3cnc(N4CCC(CC)(C(=O)O)CC4)nc3)cc(-c3cc(OC)ncn3)c2s1 [Compound 110]
physchem; [5]
  solubility at 24 h: ≥ 800 µg/mL
physchem; [6]
  solubility at 24 h: ≥ 800 µg/mL
physchem; [7]
  solubility at 24 h: > 800 µg/mL
physchem; [8]
  solubility at 24 h: > 800 µg/mL
[1]
  MIC: ≤ 0.25 µg/mL
[2]
  MIC: ≤ 0.25 µg/mL
[3]
  MIC: ≤ 0.25 µg/mL
[4]
  MIC: 0.25 to 1 µg/mL (≈ 0.444 to 1.78 µM)

## CCNC(=O)Nc1nc2cc(-c3cnc(N4CCC(CC)(C(=O)O)CC4)cn3)cc(-c3nccc(C)n3)c2s1 [Compound 112]
physchem; [6]
  solubility at 24 h: 25 µg/mL (≈ 45.7 µM)
physchem; [7]
  solubility at 24 h: 12.5 to 400 µg/mL (≈ 22.9 to 732 µM)
physchem; [9]
  solubility at 24 h: 100 µg/mL (≈ 183 µM)
physchem; [10]
  solubility at 24 h: 12.5 to 400 µg/mL (≈ 22.9 to 732 µM)
[1]
  MIC: 0.25 to 1 µg/mL (≈ 0.457 to 1.83 µM)
[2]
  MIC: ≤ 0.25 µg/mL
[3]
  MIC: ≤ 0.25 µg/mL
[4]
  MIC: 1 to 16 µg/mL (≈ 1.83 to 29.3 µM)

## CCNC(=O)Nc1nc2cc(-c3cnc(N4CCC(CC)(C(=O)O)CC4)nc3)ccc2s1 [Compound 113]
physchem; [5]
  solubility at 24 h: 100 µg/mL (≈ 220 µM)
physchem; [6]
  solubility at 24 h: 100 µg/mL (≈ 220 µM)
physchem; [7]
  solubility at 24 h: 12.5 to 400 µg/mL (≈ 27.5 to 880 µM)
physchem; [8]
  solubility at 24 h: 12.5 to 400 µg/mL (≈ 27.5 to 880 µM)
[1]
  MIC: 1 to 16 µg/mL (≈ 2.2 to 35.2 µM)
[2]
  MIC: 0.25 to 1 µg/mL (≈ 0.55 to 2.2 µM)
[3]
  MIC: 1 to 16 µg/mL (≈ 2.2 to 35.2 µM)
[4]
  MIC: > 16 µg/mL

## CCNC(=O)Nc1nc2cc(-c3cnc(N4CCC(CC)(C(=O)O)CC4)nc3)cc(N3CCOCC3)c2s1 [Compound 114, 4-ethyl-1-[5-[2-(ethylcarbamoylamino)-7-morpholino-1,3-benzothiazol-5-yl]pyrimidin-2-yl]piperidine-4-carboxylic acid]
physchem; [5]
  solubility at 24 h: 400 µg/mL (≈ 741 µM)
physchem; [6]
  solubility at 24 h: 400 µg/mL (≈ 741 µM)
physchem; [7]
  solubility at 24 h: 400 to 800 µg/mL (≈ 741 to 1480 µM)
physchem; [8]
  solubility at 24 h: 400 to 800 µg/mL (≈ 741 to 1480 µM)
[1]
  MIC: 1 to 16 µg/mL (≈ 1.85 to 29.6 µM)
[2]
  MIC: ≤ 0.25 µg/mL
[3]
  MIC: 1 to 16 µg/mL (≈ 1.85 to 29.6 µM)
[4]
  MIC: > 16 µg/mL

## CCNC(=O)Nc1nc2cc(-c3cnc(N4CCC(CC)(C(=O)O)CC4)nc3)cc(-c3ccc(F)cc3)c2s1 [Compound 115]
physchem; [6]
  solubility at 24 h: 400 µg/mL (≈ 729 µM)
physchem; [7]
  solubility at 24 h: 400 to 800 µg/mL (≈ 729 to 1460 µM)
physchem; [9]
  solubility at 24 h: ≥ 800 µg/mL
physchem; [10]
  solubility at 24 h: > 800 µg/mL
[1]
  MIC: ≤ 0.25 µg/mL
[2]
  MIC: ≤ 0.25 µg/mL
[3]
  MIC: 1 to 16 µg/mL (≈ 1.82 to 29.2 µM)
[4]
  MIC: > 16 µg/mL

## CCCC1(C(=O)O)CCN(c2ncc(-c3cc(-c4ccccn4)c4sc(NC(=O)NCC)nc4c3)cn2)CC1 [Compound 117]
physchem; [6]
  solubility at 24 h: 400 µg/mL (≈ 733 µM)
physchem; [7]
  solubility at 24 h: 400 to 800 µg/mL (≈ 733 to 1470 µM)
[1]
  MIC: ≤ 0.25 µg/mL
[2]
  MIC: ≤ 0.25 µg/mL
[3]
  MIC: ≤ 0.25 µg/mL
[4]
  MIC: 1 to 16 µg/mL (≈ 1.83 to 29.3 µM)

## CCCC1(C(=O)O)CCN(c2ncc(-c3cc(-c4cnccn4)c4sc(NC(=O)NCC)nc4c3)cn2)CC1 [Compound 118]
physchem; [6]
  solubility at 24 h: 400 µg/mL (≈ 732 µM)
physchem; [7]
  solubility at 24 h: 400 to 800 µg/mL (≈ 732 to 1460 µM)
physchem; [9]
  solubility at 24 h: ≥ 800 µg/mL
physchem; [10]
  solubility at 24 h: > 800 µg/mL
[1]
  MIC: ≤ 0.25 µg/mL
[2]
  MIC: ≤ 0.25 µg/mL
[3]
  MIC: ≤ 0.25 µg/mL
[4]
  MIC: 1 to 16 µg/mL (≈ 1.83 to 29.3 µM)

## CCCC1(C(=O)OCC)CCN(c2ncc(-c3cc(Br)c4sc(NC(=O)NCC)nc4c3)cn2)CC1 [Compound 119]
physchem; pH 7.4
  Solubility (pH 7.4): 400 μg/mL
physchem; pH 9
  Max Solubility: ≧800 μg/mL
[1]
  Antibacterial Activity (MIC) S. aureus (ATCC 29213): A (“A” activity ≦0.25 μg/mL)
[2]
  Antibacterial Activity (MIC) E. faecalis (ATCC 29212): A (“A” activity ≦0.25 μg/mL)
[3]
  Antibacterial Activity (MIC) S. pyogenes (ATCC 51339): C (“C” activity >1.0 μg/mL-16 μg/mL)
[4]
  Antibacterial Activity (MIC) H. influenzae (ATCC 49247): D (“D” activity >16 μg/mL)
